Literature values, collected in PMC6311893, “Computational prediction of plasma protein binding of cyclic peptides from small molecule experimental data using sparse modeling techniques” (BMC Bioinformatics, 2018).
Read-outs that look alike come from different tables or passages of the source.

Test system: plasma protein
Settings: cited from earlier work
[1] = fraction bound to plasma protein, small molecule dataset, sheet 1-SM, Set Dtr, ref Ingle et al.
[2] = fraction bound to plasma protein, small molecule dataset, sheet 1-SM (Set Dte = test, Dtr = training), ref Ingle et al.
[3] = fraction bound to plasma protein, small molecule dataset, sheet 1-SM, ref Ingle et al.

Nc1nc(F)nc2c1ncn2[C@@H]1O[C@H](CO)[C@@H](O)[C@@H]1O [Fludarabine]
PPB (fb) [1]: 0.12

CCOC(=O)c1ncn2c1CN(C)C(=O)c1cc(F)ccc1-2 [Flumazenil]
PPB (fb) [1]: 0.46

CN1C(=O)CN=C(c2ccccc2F)c2cc([N+](=O)[O-])ccc21 [Flunitrazepam]
PPB (fb) (plasma): 0.81

O=c1[nH]cc(F)c(=O)[nH]1 [Fluorouracil]
PPB (fb) [1]: 0.23

CCOC(=O)Nc1ccc(NCc2ccc(F)cc2)nc1N [Flupirtine]
PPB (fb) [1]: 0.82

CCC(=O)O[C@]1(C(=O)SCF)[C@H](C)C[C@H]2[C@@H]3C[C@H](F)C4=CC(=O)C=C[C@]4(C)[C@@]3(F)[C@@H](O)C[C@@]21C [Fluticasone propionate]
PPB (fb) [1]: 0.89

CC(C)n1c(/C=C/C(O)CC(O)CC(=O)O)c(-c2ccc(F)cc2)c2ccccc21 (stereo not drawn) [Fluvastatin]
PPB (fb) [1]: 0.99

O=C(O)P(=O)(O)O [Foscarnet]
PPB (fb) [1]: 0.15

O=P(O)(O)OC(Cn1cncn1)(Cn1cncn1)c1ccc(F)cc1F [Fosfluconazole]
PPB (fb) [2]: 0.96

O=C(O)[C@@H]1C[C@@H](C2CCCCC2)CN1C(=O)CP(=O)(O)CCCCc1ccccc1 [Fosinoprilat]
PPB (fb) [2]: 0.99

CN[C@@H]1CCc2[nH]c3ccc(C(N)=O)cc3c2C1 [Frovatriptan]
PPB (fb) [2]: 0.15

Cn1cc(NC(=O)c2cc(NC(=O)c3cc(NC(=O)c4nsc(Cl)c4Cl)cn3C)cn2C)cc1C(=O)NCCC(=N)N [GSQ1530]
PPB (fb) [3]: 0.89

COCCNC(=O)CN(CCN(CCN(CC(=O)O)CC(=O)NCCOC)CC(=O)O)CC(=O)O [Gadoversetamide]
PPB (fb) [1]: 0

Nc1nc(O)c2ncn(COC(CO)CO)c2n1 [Ganciclovir]
PPB (fb) [1]: 0.01

COc1c(N2CCNC(C)C2)c(F)cc2c(=O)c(C(=O)O)cn(C3CC3)c12 (stereo not drawn) [Gatifloxacin]
PPB (fb) [1]: 0.2

Nc1ccn([C@@H]2O[C@H](CO)[C@@H](O)C2(F)F)c(=O)n1 [Gemcitabine]
PPB (fb) [1]: 0.01

CO/N=C1\CN(c2nc3c(cc2F)c(=O)c(C(=O)O)cn3C2CC2)CC1CN (stereo not drawn) [Gemifloxacin]
PPB (fb) [3]: 0.64

CNC(C)C1CCC(N)C(OC2C(N)CC(N)C(OC3OCC(C)(O)C(NC)C3O)C2O)O1 (stereo not drawn) [Gentamicin]
PPB (fb) (plasma): 0.1

C#C[C@]1(O)C=C[C@H]2[C@@H]3CCC4=CC(=O)CC[C@@H]4[C@H]3CC[C@@]21CC [Gestodene]
PPB (fb) [1]: 0.98

CCC1=C(C)CN(C(=O)NCCc2ccc(S(=O)(=O)NC(=O)N[C@H]3CC[C@H](C)CC3)cc2)C1=O [Glimepiride]
PPB (fb) [1]: 0.99

COc1ccc(Cl)cc1C(=O)NCCc1ccc(S(=O)(=O)NC(=O)NC2CCCCC2)cc1 [Glyburide]
PPB (fb) [1]: 0.98

CN1C2CCCC1CC(NC(=O)c1nn(C)c3ccccc13)C2 (stereo not drawn) [Granisetron]
PPB (fb) [1]: 0.65

N=C(N)NC(=O)Cc1c(Cl)cccc1Cl [Guanfacine]
PPB (fb) [1]: 0.72

O=C(CCCN1CCC(O)(c2ccc(Cl)cc2)CC1)c1ccc(F)cc1 [Haloperidol]
PPB (fb) [1]: 0.92

CN1C(=O)NC(=O)C(C)(C2=CCCCC2)C1=O (stereo not drawn) [Hexobarbital]
PPB (fb) (plasma): 0.47

NNc1nncc2ccccc12 [Hydralazine]
PPB (fb) [1]: 0.87

C[C@]12CCC(=O)C=C1CC[C@@H]1[C@@H]2[C@@H](O)C[C@@]2(C)[C@H]1CC[C@]2(O)C(=O)CO [Hydrocortisone]
PPB (fb) [1]: 0.8

CCN(CCO)CCCC(C)Nc1ccnc2cc(Cl)ccc12 (stereo not drawn) [Hydroxychloroquine]
PPB (fb) [1]: 0.46

CCC1(O)CN2CCC1CC2C(O)c1ccnc2ccc(OC)cc12 (stereo not drawn) [Hydroxydihydroquinidine]
PPB (fb) (plasma): 0.53

CN(C)CCCN1c2ccccc2CCc2cc(O)ccc21 [Hydroxyimipramine__ 2-]
PPB (fb) [1]: 0.64

CCCCCN(C)CCC(O)(P(=O)(O)O)P(=O)(O)O [Ibandronic Acid (Ibandronate)]
PPB (fb) [2]: 0.85

CCCCCCCN(CC)CCCC(O)c1ccc(NS(C)(=O)=O)cc1 (stereo not drawn) [Ibutilide]
PPB (fb) [1]: 0.4

CC(=O)[C@]1(O)Cc2c(O)c3c(c(O)c2[C@@H](O[C@H]2C[C@H](N)[C@H](O)[C@H](C)O2)C1)C(=O)c1ccccc1C3=O [Idarubicin]
PPB (fb) [2]: 0.95

CC1OC(OC2CC(O)(C(C)O)Cc3c(O)c4c(c(O)c32)C(=O)c2ccccc2C4=O)CC(N)C1O (stereo not drawn) [Idarubicinol]
PPB (fb) [3]: 0.94

O=P1(NCCCl)OCCCN1CCCl (stereo not drawn) [Ifosfamide]
PPB (fb) (plasma): 0

CN(C)CCCN1c2ccccc2CCc2ccccc21 [Imipramine]
PPB (fb) [1]: 0.9

COc1ccc2c(c1)c(CC(=O)O)c(C)n2C(=O)c1ccc(Cl)cc1 [Indomethacin]
PPB (fb) [1]: 0.97

O=C(NC1CCN(CCc2c[nH]c3ccccc23)CC1)c1ccccc1 [Indoramin]
PPB (fb) [1]: 0.83

CC(=O)N(CC(O)CO)c1c(I)c(C(=O)NCC(O)CO)c(I)c(C(=O)NCC(O)CO)c1I (stereo not drawn) [Iohexol]
PPB (fb) [1]: 0.02

C[C@H](O)C(=O)Nc1c(I)c(C(=O)NC(CO)CO)c(I)c(C(=O)NC(CO)CO)c1I [Iopamidol]
PPB (fb) [1]: 0

COCC(=O)Nc1c(I)c(C(=O)NCC(O)CO)c(I)c(C(=O)N(C)CC(O)CO)c1I (stereo not drawn) [Iopromide]
PPB (fb) [1]: 0.01

CNC(=O)c1c(I)c(NC(C)=O)c(I)c(C(=O)O)c1I [Iothalamic acid (Iothalamate)]
PPB (fb) [2]: 0.02

CCCCC1=NC2(CCCC2)C(=O)N1Cc1ccc(-c2ccccc2-c2nnn[nH]2)cc1 [Irbesartan]
PPB (fb) [1]: 0.9

CCc1c2c(nc3ccc(OC(=O)N4CCC(N5CCCCC5)CC4)cc13)-c1cc3c(c(=O)n1C2)COC(=O)[C@]3(O)CC [Irinotecan]
PPB (fb) [2]: 0.57

CN[C@@H]1[C@@H](O)[C@@H](O[C@@H]2[C@@H](O)[C@H](O[C@H]3O[C@H](CN)[C@@H](O)[C@H](O)[C@H]3O)[C@@H](N)C[C@H]2NC(=O)[C@@H](O)CN)OC[C@]1(C)O [Isepamicin]
PPB (fb) [1]: 0.05

NNC(=O)c1ccncc1 [Isoniazid]
PPB (fb) [1]: 0.01

O=[N+]([O-])O[C@H]1CO[C@H]2[C@@H]1OC[C@H]2O[N+](=O)[O-] [Isosorbide Dinitrate]
PPB (fb) (plasma): 0.29

C=C(CC(=O)c1ccc(-c2ccccc2Cl)cc1)C(=O)O [Itanoxone]
PPB (fb) [3]: 0.98

CC(C(N)=O)c1ccc(OS(=O)(=O)C(F)(F)F)cc1 (stereo not drawn) [JMC_03]
PPB (fb) [3]: 0.92

CC(C(=O)NCCN1CCCC1)c1ccc(OS(=O)(=O)C(F)(F)F)cc1 (stereo not drawn) [JMC_04]
PPB (fb) [3]: 0.7

CC(C(=O)NCCCN1CCCC1)c1ccc(OS(=O)(=O)C(F)(F)F)cc1 (stereo not drawn) [JMC_05]
PPB (fb) [3]: 0.62

CC(C)Cc1ccc(C(C)C(=O)NCCCN2CCCC2)cc1 (stereo not drawn) [JMC_06]
PPB (fb) [3]: 0.85

CC(C)Cc1ccc(C(C)C(=O)NCCCN(C)C)cc1 (stereo not drawn) [JMC_07]
PPB (fb) [3]: 0.75

CC(C)Cc1ccc(C(C)C(=O)NCCOCCO)cc1 (stereo not drawn) [JMC_08]
PPB (fb) [3]: 0.83

CC(C)Cc1ccc(C(C)C(=O)NC(C)C(=O)O)cc1 (stereo not drawn) [JMC_09]
PPB (fb) [2]: 0.96

CC(Cc1ccc(C(C)C(=O)NS(C)(=O)=O)cc1)C(=O)O (stereo not drawn) [JMC_10]
PPB (fb) [3]: 0.7

CNC1(c2ccccc2Cl)CCCCC1=O (stereo not drawn) [Ketamine]
PPB (fb) (plasma): 0.44

O=C(c1ccc(F)cc1)C1CCN(CCn2c(=O)[nH]c3ccccc3c2=O)CC1 [Ketanserin]
PPB (fb) [1]: 0.95

O=C(c1ccccc1)c1ccc2n1CCC2C(=O)O (stereo not drawn) [Ketorolac]
PPB (fb) [1]: 0.99

CC(CCc1ccccc1)NCC(O)c1ccc(O)c(C(N)=O)c1 (stereo not drawn) [Labetalol]
PPB (fb) [1]: 0.5
